# Laboratory results as given in patent publication US8865894B2, “Oxazolidin-2-one compounds and uses thereof” (Novartis AG, priority 2012, dated 2014).
# pIC50: −log10 of the molar value.
# Key:
# [1] = biological target: T1, human PI3Kdelta p110 catalytic subunit (Rat-1 pBABEpuro Myr-HA-hp110 delta) (Homo sapiens, UniProt O00329); assay: Cellular assay PI3Kdelta (p-Akt(S473) SureFire, Rat-1_PI3Kdelta cells); format: cell-based; details: 1 h compound treatment, read-out: Rat1-PI3Kd/ IC50
# T1 construct: Myr (myristoylation signal) (N); HA (N); expressed in transfected cells; host or cells: Rat-1
# T1 sequence (O00329 whole entry): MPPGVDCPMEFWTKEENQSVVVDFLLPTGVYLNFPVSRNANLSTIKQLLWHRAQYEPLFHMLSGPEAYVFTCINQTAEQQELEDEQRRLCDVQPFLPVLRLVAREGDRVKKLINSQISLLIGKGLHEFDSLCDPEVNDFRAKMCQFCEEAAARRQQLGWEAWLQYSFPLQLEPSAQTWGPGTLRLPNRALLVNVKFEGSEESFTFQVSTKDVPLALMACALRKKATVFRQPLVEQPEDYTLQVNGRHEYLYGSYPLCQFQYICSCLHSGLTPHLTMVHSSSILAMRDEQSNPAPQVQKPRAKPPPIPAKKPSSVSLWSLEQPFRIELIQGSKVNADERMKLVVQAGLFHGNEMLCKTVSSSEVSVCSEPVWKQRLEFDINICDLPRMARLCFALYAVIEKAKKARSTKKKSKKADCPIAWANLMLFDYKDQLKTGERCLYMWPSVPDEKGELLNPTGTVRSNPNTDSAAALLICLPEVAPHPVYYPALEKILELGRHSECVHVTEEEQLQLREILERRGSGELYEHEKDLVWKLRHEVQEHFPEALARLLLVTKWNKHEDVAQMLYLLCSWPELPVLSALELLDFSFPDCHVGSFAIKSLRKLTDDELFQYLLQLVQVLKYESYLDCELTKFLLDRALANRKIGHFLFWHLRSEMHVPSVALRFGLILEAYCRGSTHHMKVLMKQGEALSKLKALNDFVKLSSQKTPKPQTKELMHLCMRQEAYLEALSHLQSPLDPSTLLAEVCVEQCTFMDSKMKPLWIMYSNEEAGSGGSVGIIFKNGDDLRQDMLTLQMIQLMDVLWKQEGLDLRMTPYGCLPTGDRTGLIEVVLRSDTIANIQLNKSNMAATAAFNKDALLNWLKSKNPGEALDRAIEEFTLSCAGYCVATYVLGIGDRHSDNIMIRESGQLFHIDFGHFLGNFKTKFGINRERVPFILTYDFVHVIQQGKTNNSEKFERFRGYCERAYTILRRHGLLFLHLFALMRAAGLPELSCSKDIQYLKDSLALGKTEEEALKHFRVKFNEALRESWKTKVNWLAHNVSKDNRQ
# T1 sequence (Q63787 whole entry partner): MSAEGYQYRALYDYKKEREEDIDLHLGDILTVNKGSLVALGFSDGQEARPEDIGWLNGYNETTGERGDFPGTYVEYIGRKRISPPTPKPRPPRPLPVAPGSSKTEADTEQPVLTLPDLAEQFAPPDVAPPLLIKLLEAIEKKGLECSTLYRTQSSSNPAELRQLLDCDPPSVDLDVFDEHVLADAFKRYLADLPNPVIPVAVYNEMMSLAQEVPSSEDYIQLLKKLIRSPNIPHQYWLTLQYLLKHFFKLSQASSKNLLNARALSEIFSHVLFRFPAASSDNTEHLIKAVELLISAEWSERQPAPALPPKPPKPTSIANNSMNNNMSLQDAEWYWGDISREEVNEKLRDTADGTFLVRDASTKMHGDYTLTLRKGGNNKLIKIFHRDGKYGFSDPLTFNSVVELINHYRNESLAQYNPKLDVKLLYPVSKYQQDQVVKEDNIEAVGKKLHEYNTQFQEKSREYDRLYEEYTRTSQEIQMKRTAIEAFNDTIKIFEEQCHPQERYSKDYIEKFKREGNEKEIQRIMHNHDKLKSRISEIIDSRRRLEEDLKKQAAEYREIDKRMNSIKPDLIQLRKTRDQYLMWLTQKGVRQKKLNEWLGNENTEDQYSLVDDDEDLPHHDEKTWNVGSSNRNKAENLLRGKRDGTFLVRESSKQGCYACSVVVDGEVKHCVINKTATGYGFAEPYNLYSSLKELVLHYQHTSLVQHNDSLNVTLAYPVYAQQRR
# From the text: (§1) AlphaScreen (Amplified Luminescent Proximity Homogeneous Assay, ALPHA, Perkin Elmer) is a non-radioactive bead-based proximity assay technology to study biomolecular interactions in a homogenous microtiter plate format. The brand name SureFire denotes AlphaScreen assays that are adapted to quantify the phosphorylation of endogenous cellular proteins in cell lysates, by using matched antibody pairs, which consist of an anti-phospho-kinase and an anti-kinase antibody. The assay allows characterization of kinase signaling in cells as well as measurement of kinase inhibitor effects. The AlphaScreen technology provides several advantages over standard assay techniques such as ELISA, as it avoids time-consuming washing procedures and reduces plate handling. Furthermore, it is miniaturizable at least to a 384-well format and provides sensitivity down to the femtomolar range, dependent on the affinity of the antibodies included in the individual AlphaScreen SureFire assay kit. High sensitivity is reached by an intrinsic amplification mechanism, which involves production of singlet oxygen molecules. SureFire assay kits are commercially available for specific targets and include pairs of validated antibodies (PerkinElmer). This report describes common procedures applied for AlphaScreen SureFire assays and respective semi-automated steps for routine kinase inhibitor profiling in cell-based assays.
# (§2) The Rat-1 cell lines stably overexpressing activated PI3K class I isoforms Rat-1 pBABEpuro Myr-HA-hp110 delta (Rat-1_PI3Kdelta) and Rat-1 pBABEpuro Myr-HA-hp110alpha (Rat-1_PI3Kalpha) and Rat-1 pBABEpuro Myr-HA-hp110 beta (Rat-1_PI3beta) were prepared as described (Maira S M, Stauffer F, Brueggen J, Furet P, Schnell C, Fritsch C, Brachmann S, Chène P, de Pover A, Schoemaker K, Fabbro D, Gabriel D, Simonen M, Murphy L, Finan P, Sellers W, García-Echeverría C (2008), Mol Cancer Ther. 7:1851-63 and Maira S M, Pecchi S, Brueggen J, Huh K, Schnell C, Fritsch C, Nagel T, Wiesmann M, Brachmann S, Dorsch M, Chène P, Schoemaker K, De Pover A, Menezes D, Fabbro D, Sellers W, García-Echeverría C, Voliva C F (2011), Mol. Cancer Ther., accepted). All cell lines were cultivated in complete growth medium (DMEM high glucose, 10% (v/v) fetal bovine serum, 1% (v/v) MEM NEAA, 10 mM HEPES, 2 mM L-glutamine, puromycin (10 μg/mL for Rat-1_PI3Kdelta and Rat-1_PI3Kalpha, 4 ug/mL for Rat-1_PI3beta), 1% (v/v) Pen/Strep) to 90% confluency at 37° C./5% CO2/90% humidity in a humidified CO2 incubator and were split twice a week.
# (§3) The following materials were used for p-AKT(S473) detection in Rat-1 cell lysates: Dulbecco's modified Eagle's medium (DMEM) high glucose (Gibco Invitrogen, Basel, Switzerland, Cat. No. 41965), Heat Inactivated Fetal Bovine Serum, Qualified (HI FBS; Gibco Invitrogen, Basel, Switzerland, Lot. No. 16140), MEM non essential amino acids (NEAA; Gibco Invitrogen, Basel, Switzerland, Cat. No. 11140), HEPES (Gibco Invitrogen, Basel, Switzerland, Cat. No. 15630), Penicillin/Streptomycin (Pen/Strep, 100×; Gibco Invitrogen, Basel, Switzerland, Cat. No. 15140-122), L-Glutamine (Gibco Invitrogen, Basel, Switzerland, Cat. No. 25030), Puromycin (Sigma Aldrich, Buchs, Switzerland, Cat. No. P9620), DMSO (MERCK, Dietikon, Switzerland, Cat. No. 8.02912.2500), H2O, MilliQ-H2O unless otherwise stated (MILLIPORE QGARDOOR1, Millipore, Zug, Switzerland), Bovine serum albumine (BSA; Sigma Aldrich, Buchs, Switzerland Cat. No. A8412), SureFire p-Akt 1/2 (Ser473) Assay Kit (PerkinElmer, Schwerzenbach, Switzerland, Cat. No. TGRAS50K).
# (§4) The p-Akt(S473) SureFire assay measures the phosphorylation of endogenous cellular Akt 1/2 at Ser473 in cell lysates. Using Rat-1 cells stably expressing myr-HA-tagged versions of the human PI3Kdelta, PI3Kalpha, or PI3Kbeta p110 catalytic subunit isoforms, the assay was developed as a two-plate protocol in a 384-well format.
# [2] = biological target: T2, human PI3Kalpha p110 catalytic subunit (Rat-1 pBABEpuro Myr-HA-hp110alpha) (Homo sapiens, UniProt P42336); assay: Cellular assay PI3Kalpha (p-Akt(S473) SureFire, Rat-1_PI3Kalpha cells); format: cell-based; details: 1 h compound treatment, read-out: Rat1-PI3Ka/ IC50
# T2 construct: Myr (myristoylation signal) (N); HA (N); expressed in transfected cells; host or cells: Rat-1
# T2 sequence (P42336 whole entry): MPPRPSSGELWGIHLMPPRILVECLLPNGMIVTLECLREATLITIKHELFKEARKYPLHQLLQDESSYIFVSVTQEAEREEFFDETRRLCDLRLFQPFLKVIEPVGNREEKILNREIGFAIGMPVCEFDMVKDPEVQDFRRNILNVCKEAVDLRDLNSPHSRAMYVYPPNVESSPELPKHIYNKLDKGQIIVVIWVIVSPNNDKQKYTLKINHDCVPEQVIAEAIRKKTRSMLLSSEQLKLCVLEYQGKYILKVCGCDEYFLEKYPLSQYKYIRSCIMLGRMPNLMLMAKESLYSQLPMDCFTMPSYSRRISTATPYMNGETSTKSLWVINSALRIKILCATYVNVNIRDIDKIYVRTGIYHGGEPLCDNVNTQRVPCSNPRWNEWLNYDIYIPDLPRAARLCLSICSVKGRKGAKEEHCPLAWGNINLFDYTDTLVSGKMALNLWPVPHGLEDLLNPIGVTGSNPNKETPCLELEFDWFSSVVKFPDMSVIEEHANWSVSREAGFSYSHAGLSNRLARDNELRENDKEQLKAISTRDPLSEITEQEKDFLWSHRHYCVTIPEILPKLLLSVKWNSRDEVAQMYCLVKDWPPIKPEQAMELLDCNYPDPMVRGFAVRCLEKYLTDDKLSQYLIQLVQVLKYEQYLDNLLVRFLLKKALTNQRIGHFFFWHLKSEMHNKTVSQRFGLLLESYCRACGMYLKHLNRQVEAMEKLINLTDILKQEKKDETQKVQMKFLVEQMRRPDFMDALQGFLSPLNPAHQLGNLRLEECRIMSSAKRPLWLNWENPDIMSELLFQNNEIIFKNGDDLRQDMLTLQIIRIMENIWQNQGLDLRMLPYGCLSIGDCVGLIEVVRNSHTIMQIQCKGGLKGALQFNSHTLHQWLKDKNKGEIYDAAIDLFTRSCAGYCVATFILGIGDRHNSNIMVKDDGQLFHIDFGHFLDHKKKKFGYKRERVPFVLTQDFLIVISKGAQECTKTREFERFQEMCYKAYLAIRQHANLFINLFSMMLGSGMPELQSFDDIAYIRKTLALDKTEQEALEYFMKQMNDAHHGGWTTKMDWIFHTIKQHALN
# T2 sequence (Q63787 whole entry partner): as the sequence (Q63787 whole entry partner) above
# From the text: as §1, §2, §3, §4
# [3] = biological target: T3, human PI3Kbeta p110 catalytic subunit (Rat-1 pBABEpuro Myr-HA-hp110 beta) (Homo sapiens, UniProt P42338); assay: Cellular assay PI3Kbeta (p-Akt(S473) SureFire, Rat-1_PI3beta cells); format: cell-based; details: p-Akt(S473), 1 h compound treatment; read-out: Rat1-PI3Kb/ IC50
# T3 construct: Myr (myristoylation signal) (N); HA (N); expressed in transfected cells; host or cells: Rat-1
# T3 sequence (P42338 whole entry): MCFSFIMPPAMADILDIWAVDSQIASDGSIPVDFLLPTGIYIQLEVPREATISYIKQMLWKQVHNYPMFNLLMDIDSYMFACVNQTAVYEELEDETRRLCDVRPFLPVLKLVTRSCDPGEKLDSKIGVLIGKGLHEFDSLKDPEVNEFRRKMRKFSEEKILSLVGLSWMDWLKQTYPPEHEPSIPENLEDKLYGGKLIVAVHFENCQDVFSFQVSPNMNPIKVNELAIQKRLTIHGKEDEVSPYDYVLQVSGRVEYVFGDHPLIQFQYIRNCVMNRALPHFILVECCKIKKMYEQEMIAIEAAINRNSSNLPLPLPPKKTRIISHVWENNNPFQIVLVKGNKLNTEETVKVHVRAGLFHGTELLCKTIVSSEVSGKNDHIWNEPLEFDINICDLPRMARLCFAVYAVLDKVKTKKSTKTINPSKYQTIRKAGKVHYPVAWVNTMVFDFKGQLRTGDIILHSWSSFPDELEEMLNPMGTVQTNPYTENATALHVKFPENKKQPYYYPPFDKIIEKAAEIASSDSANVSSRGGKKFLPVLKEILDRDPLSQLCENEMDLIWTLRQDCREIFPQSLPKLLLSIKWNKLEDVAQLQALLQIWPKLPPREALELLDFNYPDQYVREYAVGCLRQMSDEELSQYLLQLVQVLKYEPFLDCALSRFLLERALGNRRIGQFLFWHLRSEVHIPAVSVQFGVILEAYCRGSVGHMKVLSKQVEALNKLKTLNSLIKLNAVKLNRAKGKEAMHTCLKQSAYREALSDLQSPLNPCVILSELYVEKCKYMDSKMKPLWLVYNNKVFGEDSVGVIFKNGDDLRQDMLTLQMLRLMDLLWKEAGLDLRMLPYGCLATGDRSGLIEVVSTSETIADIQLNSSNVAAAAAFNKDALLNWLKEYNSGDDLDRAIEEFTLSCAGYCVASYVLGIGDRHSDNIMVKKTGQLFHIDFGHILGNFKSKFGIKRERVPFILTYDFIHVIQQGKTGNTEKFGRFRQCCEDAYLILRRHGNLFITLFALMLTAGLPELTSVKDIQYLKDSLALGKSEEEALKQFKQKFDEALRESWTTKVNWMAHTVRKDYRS
# T3 sequence (Q63787 whole entry partner): as the sequence (Q63787 whole entry partner) above
# From the text: as §1, §2, §3, §4
# A2058 cells = assay: Cell cycle G2/M arrest Cytospin assay to detect tubulin binding (off-target); format: cell-based; set-up: key: 0=no condensed DNA observed (indicating no off target activity); 1=(indicating weak off target activity); 2=(indicating medium off target activity); 3=large amount of condensed DNA observed (indicating strong off-target activity); details: 5 μM test item, 24 hours
# Description: The off-target effect (evidence of tubulin binding) was measured as follows.
# Cell cycle G2/M arrest Cytospin assay to detect tubulin binding (off-target) binding activities of MAPP derivatives: 5×10^5 cells A2058 cells were plated in 6-well cluster, with 2 mL of DMEM (high Glucose containing 1% sodium pyruvate, 1% glutamin and 10% FCS). 18 hours later, the test items were added at a concentration of 5 μM (spiking 1 μL of a 10 mM solution of the test item). 24 hours later, the cells were trypsinized and transferred into a 15 mL conical tube. Cells are then pelleted by centrifugation, and resuspended with PBS/0 (containing 10% FCS). Cells are counted with a CASY counter, and each samples equilibrated to 1×10^6 cells/mL. […] The staining was visually assessed for the presence of condensed DNA and given a score where 0=no condensed DNA observed (indicating no off target activity), 1=(indicating weak off target activity), 2=(indicating medium off target activity), 3=large amount of condensed DNA observed (indicating strong off-target activity).
SMILES,pIC50 [1],pIC50 [2],pIC50 [3],"Score (condensed DNA, G2/M arrest; off-target tubulin binding) (A2058 cells)",melting point [°C]
"[2H]C1([2H])OC([2H])([2H])C([2H])([2H])N(c2nc(-c3cnc(N)nc3C(F)(F)F)cc(N3C(=O)OC[C@@H]3C)n2)C1([2H])[2H] [Example 17, (S)-3-(2′-amino-2-D8-morpholino-4′-(trifluoromethyl)-[4,5′-bipyrimidin]-6-yl)-4-methyloxazolidin-2-one]",6.81,6.75,6.77,0,
"C[C@H](O)CC1OC(=O)N(c2cc(-c3cnc(N)nc3C(F)(F)F)nc(N3CCOCC3)n2)[C@H]1C (single isomer, unassigned) [Example 25]",7.89,7.35,7.37,0,
"Nc1ncc(-c2cc(N3C[C@@H](CO)OC3=O)nc(N3CCOCC3)n2)c(C(F)(F)F)n1 [Example 14, (S)-3-(2′-Amino-2-morpholin-4-yl-4′-trifluoromethyl-[4,5′]bipyrimidinyl-6-yl)-5-hydroxymethyl-oxazolidin-2-one]",7.00,6.56,6.80,0,
"Nc1ncc(-c2cc(N3C(=O)O[C@@H]4[C@@H](O)CC[C@@H]43)nc(N3CCOCC3)n2)c(C(F)(F)F)n1 (racemic) [Example 22, (3aR*,6R*,6aR*)-3-(2′-Amino-2-morpholino-4′-(trifluoromethyl)-[4,5′-bipyrimidin]-6-yl)-6-hydroxyhexahydro-2H-cyclopenta[d]oxazol-2-one]",7.57,7.02,7.11,0,
"CC1(CO)COC(=O)N1c1cc(-c2cnc(N)nc2C(F)(F)F)nc(N2CCOCC2)n1 (racemic) [Example 3, 3-(2′-amino-2-morpholino-4′-(trifluoromethyl)-4,5′-bipyrimidin-6-yl)-4-(hydroxymethyl)-4-methyloxazolidin-2-one]",7.14,6.83,6.71,0,
"Nc1ncc(-c2cc(N3C(=O)O[C@H]4COC[C@H]43)nc(N3CCOCC3)n2)c(C(F)(F)F)n1 [Example 21, (3aR,6aR)-3-(2′-amino-2-morpholino-4′-(trifluoromethyl)-[4,5′-bipyrimidin]-6-yl)-tetrahydrofuro[3,4-d]oxazol-2(3H)-one]",7.21,7.07,7.34,0,
"C[C@H]1[C@@H](CO)OC(=O)N1c1cc(-c2cnc(N)nc2C(F)(F)F)nc(N2CCOCC2)n1 [Example 19, (4S,5S)-3-(2′-Amino-2-morpholin-4-yl-4′-trifluoromethyl-[4,5′]bipyrimidinyl-6-yl)-5-hydroxymethyl-4-methyl-oxazolidin-2-one]",7.47,7.30,7.15,0,
"C[C@H]1OC(=O)N(c2cc(-c3cnc(N)nc3C(F)(F)F)nc(N3CCOC[C@@H]3C)n2)[C@H]1CO [Example 10, (4S,5R)-3-[2′-Amino-2-((S)-3-methyl-morpholin-4-yl)-4′-trifluoromethyl-[4,5′]bipyrimidinyl-6-yl]-4-hydroxymethyl-5-methyl-oxazolidin-2-one]",7.28,7.21,6.76,0,217.7
"Nc1ncc(-c2cc(N3CCOC3=O)nc(N3CCOCC3)n2)c(C(F)(F)F)n1 [Example 11, 3-(2′-Amino-2-morpholin-4-yl-4′-trifluoromethyl-[4,5′]bipyrimidinyl-6-yl)-oxazolidin-2-one, reference compound]",6.86,6.59,6.74,3,
"C[C@H]1C(CC(C)(C)O)OC(=O)N1c1cc(-c2cnc(N)nc2C(F)(F)F)nc(N2CCOCC2)n1 (mixture of isomers) [Example 26, (4S,5R)- and (4S,5S)-3-(2′-amino-2-morpholino-4′-(trifluoromethyl)-[4,5′-bipyrimidin]-6-yl)-5-(2-hydroxy-2-methylpropyl)-4-methyloxazolidin-2-one]",7.96,7.24,7.12,0,
"C[C@@H](O)C[C@H]1OC(=O)N(c2cc(-c3cnc(N)nc3C(F)(F)F)nc(N3CCOCC3)n2)[C@H]1C (single isomer, unassigned) [Example 24]",8.15,7.35,7.47,0,
